Reference: BigSolDB 2.1

Nc1ccc(Cl)cc1[N+](=O)[O-]
solubility (mole fraction)
Settings	278.15 K	283.15 K	288.15 K	293.15 K	298.15 K	303.15 K	308.15 K	313.15 K	318.15 K	323.15 K
in 1,4-dioxane	–	–	0.0282	0.0337	0.0405	0.0509	0.065	0.0828	0.105	0.133
in NMP	0.0539	0.0605	0.0737	0.0887	0.106	0.125	0.142	0.167	0.187	0.223
in acetonitrile	0.0327	0.0373	0.0442	0.053	0.0625	0.075	0.09	0.105	0.124	0.145
in cyclohexane	0.000163	0.000195	0.000267	0.000354	0.000468	0.000613	0.000773	0.000983	0.00124	0.0016
in ethanol	0.013	0.0144	0.0168	0.0194	0.0232	0.0277	0.0323	0.0371	0.043	0.0493
in ethyl acetate	0.0193	0.0244	0.032	0.0418	0.0535	0.0684	0.0883	0.113	0.143	0.177
in ethylene glycol	0.00179	0.00229	0.00281	0.00363	0.00453	0.00573	0.00737	0.00926	0.0118	0.0158
in isopropanol	0.0111	0.0123	0.0145	0.0175	0.0208	0.0252	0.0296	0.0352	0.0406	0.0463
in methanol	0.0158	0.017	0.0199	0.0239	0.0287	0.034	0.0403	0.0479	0.056	0.0667
in n-butanol	0.00963	0.0107	0.0124	0.0146	0.0177	0.0215	0.0257	0.0301	0.0357	0.0427
in n-propanol	0.0119	0.013	0.0152	0.018	0.0217	0.0259	0.0308	0.0362	0.042	0.0481
in water	8e-06	1e-05	1.4e-05	1.9e-05	2.5e-05	3.3e-05	4.3e-05	5.5e-05	7e-05	8.6e-05
